Key:
Type in all cases: biochemical
[1] = molecular target: CDK6/CyclinD1 (Homo sapiens (Human), UniProt Q00534); assay: CDK6/CyclinD1 kinase inhibitory activity (Caliper mobility shift); settings: read-out: CDK6/Cyclin D1 IC50
[2] = molecular target: CDK7/CyclinH/MAT1 (Homo sapiens (Human), UniProt P50613); assay: CDK7/CyclinH/MAT1 kinase inhibitory activity (Caliper mobility shift)
[3] = molecular target: CDK2/CyclinE1 (Homo sapiens (Human), UniProt P24941); assay: CDK2/CyclinE1 kinase inhibitory activity (Caliper mobility shift); settings: for IC50: read-out: CDK2/Cyclin El IC50
[4] = molecular target: CDK4/Cyclin D1 (Homo sapiens (Human), UniProt P11802); assay: CDK4/CyclinD1 kinase inhibitory activity (Caliper mobility shift)
Chain of CDK4/Cyclin D1 (P11802 whole entry): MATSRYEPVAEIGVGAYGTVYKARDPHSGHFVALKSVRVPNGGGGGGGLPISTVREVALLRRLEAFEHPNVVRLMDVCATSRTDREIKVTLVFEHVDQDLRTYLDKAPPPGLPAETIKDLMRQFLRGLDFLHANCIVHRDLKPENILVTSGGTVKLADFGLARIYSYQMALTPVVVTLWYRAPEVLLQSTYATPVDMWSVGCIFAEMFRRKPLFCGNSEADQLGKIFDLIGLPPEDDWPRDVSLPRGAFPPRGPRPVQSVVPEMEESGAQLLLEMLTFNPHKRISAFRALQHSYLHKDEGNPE
Chain of CDK4/Cyclin D1 (P24385 whole entry partner): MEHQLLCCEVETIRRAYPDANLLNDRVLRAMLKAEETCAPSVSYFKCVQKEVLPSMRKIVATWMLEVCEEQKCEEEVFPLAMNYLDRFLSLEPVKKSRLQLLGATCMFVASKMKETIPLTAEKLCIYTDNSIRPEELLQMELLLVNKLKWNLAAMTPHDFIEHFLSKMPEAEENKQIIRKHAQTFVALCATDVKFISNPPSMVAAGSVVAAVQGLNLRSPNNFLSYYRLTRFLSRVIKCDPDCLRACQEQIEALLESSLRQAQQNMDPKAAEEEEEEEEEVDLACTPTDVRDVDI

[5] = molecular target: CDK9/CyclinT1 (Homo sapiens (Human), UniProt P50750); assay: CDK9/CyclinT1 kinase inhibitory activity (Caliper mobility shift); settings: read-out: CDK9/Cyclin T1 IC50
Chain of CDK9/CyclinT1 (P50750 whole entry): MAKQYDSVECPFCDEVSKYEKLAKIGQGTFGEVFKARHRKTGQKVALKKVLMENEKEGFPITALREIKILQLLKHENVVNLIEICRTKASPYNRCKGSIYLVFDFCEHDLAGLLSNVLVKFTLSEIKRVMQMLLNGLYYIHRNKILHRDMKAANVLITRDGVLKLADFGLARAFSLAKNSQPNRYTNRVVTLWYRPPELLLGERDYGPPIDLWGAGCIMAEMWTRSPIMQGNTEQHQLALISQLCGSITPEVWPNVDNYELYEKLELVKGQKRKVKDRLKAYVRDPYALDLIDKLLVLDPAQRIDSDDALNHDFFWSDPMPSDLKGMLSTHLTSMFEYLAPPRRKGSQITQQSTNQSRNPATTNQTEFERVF
Chain of CDK9/CyclinT1 (O60563 whole entry partner): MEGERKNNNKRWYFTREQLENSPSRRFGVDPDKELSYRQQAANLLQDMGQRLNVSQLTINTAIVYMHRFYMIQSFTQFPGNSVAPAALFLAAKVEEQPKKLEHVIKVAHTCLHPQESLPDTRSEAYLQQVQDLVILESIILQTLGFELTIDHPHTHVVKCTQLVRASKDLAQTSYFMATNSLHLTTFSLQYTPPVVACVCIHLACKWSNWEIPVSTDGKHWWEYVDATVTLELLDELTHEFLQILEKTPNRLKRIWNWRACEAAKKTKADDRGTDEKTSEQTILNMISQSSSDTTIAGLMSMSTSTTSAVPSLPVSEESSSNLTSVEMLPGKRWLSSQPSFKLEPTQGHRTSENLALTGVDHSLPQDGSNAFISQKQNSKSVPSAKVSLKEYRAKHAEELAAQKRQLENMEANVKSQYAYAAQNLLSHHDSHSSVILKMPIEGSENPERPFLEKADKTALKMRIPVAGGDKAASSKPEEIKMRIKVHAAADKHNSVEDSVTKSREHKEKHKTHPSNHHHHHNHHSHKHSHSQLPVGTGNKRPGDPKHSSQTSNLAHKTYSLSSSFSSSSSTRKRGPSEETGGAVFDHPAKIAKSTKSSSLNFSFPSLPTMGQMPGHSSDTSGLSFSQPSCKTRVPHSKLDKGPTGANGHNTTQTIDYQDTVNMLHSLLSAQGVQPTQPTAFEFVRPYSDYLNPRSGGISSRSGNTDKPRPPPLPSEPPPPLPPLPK

[6] = molecular target: CDK1/CyclinB (Homo sapiens (Human), UniProt P06493); assay: CDK1/CyclinB kinase inhibitory activity (Caliper mobility shift); settings: read-out: CDK1/Cyclin B1 IC50
Chain of CDK1/CyclinB (P06493 whole entry): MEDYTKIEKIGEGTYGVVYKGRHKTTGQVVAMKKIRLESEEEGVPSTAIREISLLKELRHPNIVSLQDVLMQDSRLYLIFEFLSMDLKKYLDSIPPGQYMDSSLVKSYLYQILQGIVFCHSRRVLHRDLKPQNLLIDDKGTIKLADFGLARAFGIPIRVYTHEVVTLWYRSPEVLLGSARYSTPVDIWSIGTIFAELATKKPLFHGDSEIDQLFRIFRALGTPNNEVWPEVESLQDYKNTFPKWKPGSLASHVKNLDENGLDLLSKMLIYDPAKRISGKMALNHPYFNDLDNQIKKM
Chain of CDK1/CyclinB (P14635 whole entry partner): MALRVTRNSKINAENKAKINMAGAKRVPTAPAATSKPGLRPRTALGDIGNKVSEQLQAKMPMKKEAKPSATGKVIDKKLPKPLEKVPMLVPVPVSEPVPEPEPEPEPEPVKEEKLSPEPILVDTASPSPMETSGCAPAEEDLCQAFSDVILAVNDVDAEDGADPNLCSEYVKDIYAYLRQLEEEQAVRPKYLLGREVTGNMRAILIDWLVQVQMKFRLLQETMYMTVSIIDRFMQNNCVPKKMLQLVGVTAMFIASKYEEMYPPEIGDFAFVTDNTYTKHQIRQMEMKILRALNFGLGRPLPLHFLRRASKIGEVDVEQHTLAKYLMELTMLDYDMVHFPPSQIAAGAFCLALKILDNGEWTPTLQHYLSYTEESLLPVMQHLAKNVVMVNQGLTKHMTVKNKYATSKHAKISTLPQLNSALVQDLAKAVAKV

Chain of CDK7/CyclinH/MAT1 (P50613 whole entry): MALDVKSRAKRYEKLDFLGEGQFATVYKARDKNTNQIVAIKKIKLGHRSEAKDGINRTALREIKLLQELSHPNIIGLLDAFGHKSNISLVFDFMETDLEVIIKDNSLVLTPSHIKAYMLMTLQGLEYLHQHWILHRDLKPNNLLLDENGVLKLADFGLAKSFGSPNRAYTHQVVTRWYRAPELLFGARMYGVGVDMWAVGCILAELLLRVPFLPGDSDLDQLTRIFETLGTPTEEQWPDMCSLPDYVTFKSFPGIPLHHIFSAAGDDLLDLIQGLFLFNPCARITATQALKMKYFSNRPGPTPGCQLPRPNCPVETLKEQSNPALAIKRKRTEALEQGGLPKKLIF
Chain of CDK7/CyclinH/MAT1 (P51946 whole entry partner): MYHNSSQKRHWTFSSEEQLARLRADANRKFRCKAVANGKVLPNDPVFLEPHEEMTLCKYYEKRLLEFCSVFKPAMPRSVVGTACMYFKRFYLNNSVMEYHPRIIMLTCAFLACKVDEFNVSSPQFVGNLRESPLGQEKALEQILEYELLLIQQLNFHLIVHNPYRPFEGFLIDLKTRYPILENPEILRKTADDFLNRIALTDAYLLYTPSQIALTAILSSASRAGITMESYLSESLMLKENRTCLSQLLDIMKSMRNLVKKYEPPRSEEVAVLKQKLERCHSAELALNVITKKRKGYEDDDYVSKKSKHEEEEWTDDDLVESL
Chain of CDK7/CyclinH/MAT1 (P51948 whole entry partner): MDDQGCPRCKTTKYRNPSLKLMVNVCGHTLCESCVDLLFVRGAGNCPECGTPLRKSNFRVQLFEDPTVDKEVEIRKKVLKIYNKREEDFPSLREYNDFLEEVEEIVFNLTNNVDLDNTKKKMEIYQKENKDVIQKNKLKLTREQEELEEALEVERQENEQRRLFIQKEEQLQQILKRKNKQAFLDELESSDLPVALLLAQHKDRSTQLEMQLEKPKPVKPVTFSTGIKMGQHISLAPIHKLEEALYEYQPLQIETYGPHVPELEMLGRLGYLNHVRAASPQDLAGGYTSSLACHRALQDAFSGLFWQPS
Chain of CDK6/CyclinD1 (Q00534 whole entry): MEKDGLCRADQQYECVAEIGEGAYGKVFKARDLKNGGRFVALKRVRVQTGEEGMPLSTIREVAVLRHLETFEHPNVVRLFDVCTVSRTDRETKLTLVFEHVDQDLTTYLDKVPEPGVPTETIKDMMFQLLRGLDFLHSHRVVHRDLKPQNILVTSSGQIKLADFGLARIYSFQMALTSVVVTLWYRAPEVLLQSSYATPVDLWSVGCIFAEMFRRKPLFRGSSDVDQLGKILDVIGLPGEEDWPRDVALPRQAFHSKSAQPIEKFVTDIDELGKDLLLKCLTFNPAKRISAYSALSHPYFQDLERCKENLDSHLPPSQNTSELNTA
Chain of CDK6/CyclinD1 (P24385 whole entry partner): as the sequence (P24385 whole entry partner) above

Row | SMILES | IC50 [1] | IC50 [2] | IC50 [3] | IC50 [4] | IC50 [5] | IC50 [6] | selectivity over CDK1 ([3]; inhibiting CDK2 over CDK1)
1 | CS(=O)(=O)N1CCC(Nc2ncc(C(F)(F)F)c(OC3CCC3)n2)CC1 [Example 126] | 10 to 100 nM | 100 to 1000 nM | < 10 nM | 10 to 100 nM | 100 to 1000 nM | 10 to 100 nM | –
2 | CC1(O)COCCC1Oc1nc(NC2CCN(S(C)(=O)=O)CC2)ncc1C#N (single isomer, unassigned) [Example 45a] | 10 to 100 nM | 10 to 100 nM | < 10 nM | 10 to 100 nM | 100 to 1000 nM | 10 to 100 nM | –
3 | CC1(O)CC(F)(F)CCC1Oc1nc(NC2CCN(S(C)(=O)=O)CC2)ncc1C#N (single isomer, unassigned) [Example 47b] | 100 to 1000 nM | ≥ 1000 nM | 100 to 1000 nM | 100 to 1000 nM | ≥ 1000 nM | ≥ 1000 nM | –
4 | CNS(=O)(=O)c1ccc(Nc2ncc(Br)c(OC3CCCC3O)n2)cc1 (single isomer, unassigned) [Example 142a] | 10 to 100 nM | 100 to 1000 nM | < 10 nM | 100 to 1000 nM | 100 to 1000 nM | 10 to 100 nM | –
5 | Cn1cc(S(=O)(=O)N2CCC(Nc3ncc(C#N)c(OC4CCCC4(C)O)n3)CC2)cn1 (single isomer, unassigned) [Example 48a] | < 10 nM | 10 to 100 nM | < 10 nM | < 10 nM | 100 to 1000 nM | < 10 nM | –
6 | CC1(O)CCCCC1Oc1nc(Nc2ccc(S(N)(=O)=O)cc2)ncc1C#N (single isomer, unassigned) [Example 24a] | < 10 nM | < 10 nM | < 10 nM | < 10 nM | < 10 nM | < 10 nM | –
7 | CS(=O)(=O)N1CCC(Nc2ncc(C(F)(F)F)c(OC3CCCCC3)n2)CC1 [Example 127] | 100 to 1000 nM | 100 to 1000 nM | < 10 nM | < 10 nM | 10 to 100 nM | 10 to 100 nM | –
8 | Cn1cc(S(=O)(=O)N2CCC(Nc3ncc(C(F)(F)F)c(OC4CCOCC4(C)O)n3)CC2)cn1 (single isomer, unassigned) [Example 125a] | < 10 nM | < 10 nM | < 10 nM | < 10 nM | 10 to 100 nM | < 10 nM | –
9 | CC(C)NS(=O)(=O)c1ccc(Nc2ncc(C#N)c(OC3CCCC3(C)O)n2)cc1 (single isomer, unassigned) [Example 35a] | 10 to 100 nM | 10 to 100 nM | < 10 nM | 10 to 100 nM | 10 to 100 nM | < 10 nM | –
10 | CC1(COc2nc(NC3CCN(S(C)(=O)=O)CC3)ncc2C#N)CCC1 [Example 53] | 10 to 100 nM | 100 to 1000 nM | < 10 nM | < 10 nM | 100 to 1000 nM | 10 to 100 nM | –
11 | [2H]C([2H])([2H])NS(=O)(=O)c1ccc(Nc2ncc(C(F)(F)F)c(O[C@H]3CCOC[C@H]3O)n2)c(F)c1 (single isomer, unassigned) [Example 101a, cis-3-fluoro-4-((4-((3-hydroxytetrahydro-2H-pyran-4-yl)oxy)-5-(trifluoromethyl)pyrimidin-2-yl)amino)-N-(methyl-d3)benzenesulfonamide] | ≥ 1000 nM | ≥ 1000 nM | < 10 nM | ≥ 1000 nM | ≥ 1000 nM | 100 to 1000 nM | –
12 | N#Cc1cnc(Nc2ccc(S(N)(=O)=O)cc2)nc1N1CCC(O)CC1 [Example 82] | 100 to 1000 nM | ≥ 1000 nM | 10 to 100 nM | 100 to 1000 nM | 100 to 1000 nM | 100 to 1000 nM | –
13 | CC1(O)CCC(F)(F)CC1Oc1nc(NC2CCN(S(C)(=O)=O)CC2)ncc1C#N (single isomer, unassigned) [Example 46b] | < 10 nM | < 10 nM | < 10 nM | < 10 nM | 10 to 100 nM | < 10 nM | –
14 | NS(=O)(=O)c1ccc(Nc2ncc(Br)c(OC3CCCC3O)n2)cc1 (single isomer, unassigned) [Example 141a] | 10 to 100 nM | 100 to 1000 nM | < 10 nM | 10 to 100 nM | 10 to 100 nM | 10 to 100 nM | –
15 | CNS(=O)(=O)c1ccc(Nc2ncc(Cl)c(OC3CCCC3O)n2)cc1 (single isomer, unassigned) [Example 137a] | 10 to 100 nM | 100 to 1000 nM | < 10 nM | 100 to 1000 nM | 100 to 1000 nM | 10 to 100 nM | –
16 | Cn1cc(S(=O)(=O)N2CCC(Nc3ncc(C#N)c(OC4CC5(CCC5)C4)n3)CC2)cn1 [Example 59] | 10 to 100 nM | 100 to 1000 nM | < 10 nM | < 10 nM | 100 to 1000 nM | 10 to 100 nM | –
17 | C[C@]1(O)CC(F)(F)C[C@H]1Oc1nc(NC2CCN(S(C)(=O)=O)CC2)ncc1C#N (relative stereo) [Example 4a, cis-4-((4,4-difluoro-2-hydroxy-2-methylcyclopentyl)oxy)-2-((1-(methylsulfonyl)piperidin-4-yl)amino)pyrimidine-5-carbonitrile] | < 10 nM | 10 to 100 nM | < 10 nM | 10 to 100 nM | 100 to 1000 nM | 10 to 100 nM | –
18 | [2H]C([2H])([2H])NS(=O)(=O)c1ccc(Nc2ncc(CC)c(OC3COCCC3(C)O)n2)cc1 (single isomer, unassigned) [Example 153a] | 10 to 100 nM | 10 to 100 nM | < 10 nM | 100 to 1000 nM | 10 to 100 nM | 10 to 100 nM | –
19 | Cn1cc(S(=O)(=O)N2CCC(Nc3ncc(Br)c(OC4CCCCC4O)n3)CC2)cn1 (single isomer, unassigned) [Example 144b] | 10 to 100 nM | 100 to 1000 nM | < 10 nM | 10 to 100 nM | 100 to 1000 nM | 10 to 100 nM | –
20 | [2H]C([2H])([2H])NS(=O)(=O)c1ccc(Nc2ncc(Cl)c(OC3COCC3(C)O)n2)cc1 (single isomer, unassigned) [Example 140a] | 100 to 1000 nM | 100 to 1000 nM | < 10 nM | 100 to 1000 nM | 100 to 1000 nM | 10 to 100 nM | –

Next, values leading:

Row | IC50 [1] | IC50 [2] | IC50 [3] | IC50 [4] | IC50 [5] | IC50 [6] | selectivity over CDK1 ([3]; inhibiting CDK2 over CDK1) | SMILES
21 | 10 to 100 nM | 100 to 1000 nM | < 10 nM | < 10 nM | 100 to 1000 nM | < 10 nM | – | Cn1cc(S(=O)(=O)N2CCC(Nc3ncc(C#N)c(OCC4(C)CCCC4)n3)CC2)cn1 [Example 62]
22 | 10 to 100 nM | 100 to 1000 nM | < 10 nM | 100 to 1000 nM | 10 to 100 nM | 10 to 100 nM | – | C=Cc1cnc(Nc2ccc(S(N)(=O)=O)cc2)nc1OC1CCCC1O (single isomer, unassigned) [Example 155a]
23 | < 10 nM | 10 to 100 nM | < 10 nM | < 10 nM | 100 to 1000 nM | 10 to 100 nM | – | CC1(O)CC(F)(F)CCC1Oc1nc(NC2CCN(S(C)(=O)=O)CC2)ncc1C#N (single isomer, unassigned) [Example 47a]
24 | 100 to 1000 nM | 100 to 1000 nM | < 10 nM | 100 to 1000 nM | 100 to 1000 nM | 10 to 100 nM | – | [2H]C([2H])([2H])NS(=O)(=O)c1ccc(Nc2ncc(C(F)(F)F)c(O[C@H]3CCCOC[C@H]3O)n2)cc1 (single isomer, unassigned) [Example 103a, cis-4-((4-((3-hydroxyoxepan-4-yl)oxy)-5-(trifluoromethyl)pyrimidin-2-yl)amino)-N-(methyl-d3)benzenesulfonamide]
25 | < 10 nM | 100 to 1000 nM | < 10 nM | < 10 nM | 10 to 100 nM | < 10 nM | – | CC1(COc2nc(NC3CCN(S(=O)(=O)CCO)CC3)ncc2C#N)CCCC1 [Example 57]
26 | 10 to 100 nM | ≥ 1000 nM | < 10 nM | 10 to 100 nM | 100 to 1000 nM | 10 to 100 nM | more than 30 fold | N#Cc1cnc(Nc2ccc(S(N)(=O)=O)cc2)nc1OCC1CCC1 [Example 9]
27 | 100 to 1000 nM | 100 to 1000 nM | < 10 nM | 10 to 100 nM | 10 to 100 nM | < 10 nM | – | CC(C)NS(=O)(=O)c1ccc(Nc2ncc(C(F)(F)F)c(OC3CCCC3O)n2)cc1 (single isomer, unassigned) [Example 106a]
28 | 100 to 1000 nM | ≥ 1000 nM | 10 to 100 nM | 10 to 100 nM | 100 to 1000 nM | 100 to 1000 nM | – | N#Cc1cnc(Nc2ccc(S(N)(=O)=O)cc2)nc1N1CCC[C@H](F)C1 [Example 81]
29 | 10 to 100 nM | 100 to 1000 nM | < 10 nM | 100 to 1000 nM | 10 to 100 nM | 10 to 100 nM | – | NS(=O)(=O)c1ccc(Nc2ncc(C(F)(F)F)c(O[C@@H]3CCC[C@@H]3O)n2)cc1 (single isomer, unassigned) [Example 99a, cis-4-((4-((2-hydroxycyclopentyl)oxy)-5-(trifluoromethyl)pyrimidin-2-yl)amino)benzenesulfonamide]
30 | < 10 nM | 10 to 100 nM | < 10 nM | < 10 nM | 100 to 1000 nM | 10 to 100 nM | – | C[C@]1(O)CCC[C@H]1Oc1nc(NC2CCN(S(C)(=O)=O)CC2)ncc1C#N (relative stereo) [Example 3b, cis-4-((2-hydroxy-2-methylcyclopentyl)oxy)-2-((1-(methylsulfonyl)piperidin-4-yl)amino)pyrimidine-5-carbonitrile]

From patent US20240166635A1, “AMINOHETEROARYL KINASE INHIBITORS” (Anrui Biomedical Technology (Guangzhou) Co.,Ltd., priority 2020, published 2024)
